Experimental data published in paper PMC5522258 (Oncotarget, 2017).
“And” between values parts separate entries of the source, which are not always exact repeats. Equal entries are not always repeated. Where two headings read alike, the source gives them in different places.

Columns and labels:
UGT1A1 [1] = target: T1, UGT1A1 (Homo sapiens, UniProt P22309); assay: SN-38 glucuronidation (SN-38G formation) by human recombinant UGT1A1, with and without HDACi; assay type: in vitro ADME; settings: for decrease of CLint: p < 0.05
T1 sequence (P22309 26-533): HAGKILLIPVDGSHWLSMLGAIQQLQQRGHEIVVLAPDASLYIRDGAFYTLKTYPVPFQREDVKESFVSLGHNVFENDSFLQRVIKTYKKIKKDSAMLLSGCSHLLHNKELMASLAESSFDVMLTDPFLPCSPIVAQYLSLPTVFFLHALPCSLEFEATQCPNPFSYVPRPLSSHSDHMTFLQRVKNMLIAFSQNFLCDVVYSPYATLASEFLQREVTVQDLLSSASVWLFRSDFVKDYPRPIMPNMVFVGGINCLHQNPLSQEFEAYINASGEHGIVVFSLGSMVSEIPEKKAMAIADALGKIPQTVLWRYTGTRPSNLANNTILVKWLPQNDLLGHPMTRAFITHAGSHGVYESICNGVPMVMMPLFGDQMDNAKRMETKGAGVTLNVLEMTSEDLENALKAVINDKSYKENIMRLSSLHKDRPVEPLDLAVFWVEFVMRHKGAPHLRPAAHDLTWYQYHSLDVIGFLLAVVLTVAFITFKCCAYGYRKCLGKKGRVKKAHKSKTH
Description: (§1) UGT1A1, UGT1A6 and UGT1A7 were chosen since these UGTs could be responsible for glucuronidating panobinostat.
(§2) All experiments were carried out in triplicate. […] Data were considered statistically significant when p < 0.05.

UGT1A1 [2] = assay: SN-38 glucuronidation by pooled HLMs, 50 donor pool (wild type, 6/6), with and without belinostat; assay type: in vitro ADME, human; settings: human, pH 7.4; 50 donor pool HLMs (6/6), without belinostat; read-out: intrinsic clearance (CLint) of SN-38G formation
Description: as §2

[3] = tested on: pooled HLMs (50 donor pool, wild-type 6/6 genotype); assay: as above; assay type: in vitro ADME, human; settings: for decrease of CLint: 50 donor pool HLMs (6/6), p < 0.05
Description: as §2

UGT1A9 = target: T2, UGT1A9 (Homo sapiens, UniProt O60656); assay: SN-38 glucuronidation by human recombinant UGT1A9, with and without vorinostat; assay type: in vitro ADME
T2 construct: purchased BD Gentest
T2 sequence (O60656 26-530): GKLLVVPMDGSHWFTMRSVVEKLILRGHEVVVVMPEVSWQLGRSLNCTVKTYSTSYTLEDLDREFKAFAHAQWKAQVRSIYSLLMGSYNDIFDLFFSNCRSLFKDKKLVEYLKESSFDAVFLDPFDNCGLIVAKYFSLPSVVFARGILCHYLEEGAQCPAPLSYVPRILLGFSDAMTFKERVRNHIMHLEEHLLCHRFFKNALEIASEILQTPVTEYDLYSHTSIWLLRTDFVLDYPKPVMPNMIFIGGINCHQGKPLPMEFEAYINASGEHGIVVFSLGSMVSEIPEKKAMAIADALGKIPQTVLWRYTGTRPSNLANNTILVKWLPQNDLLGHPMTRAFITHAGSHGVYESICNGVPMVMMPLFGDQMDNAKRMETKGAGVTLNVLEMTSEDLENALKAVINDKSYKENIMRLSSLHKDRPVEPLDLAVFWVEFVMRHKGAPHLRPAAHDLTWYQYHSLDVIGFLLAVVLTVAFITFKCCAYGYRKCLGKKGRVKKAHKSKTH
Description: as §2

[4] = more potent than irinotecan; cited from earlier work
UGT1A1 [5] = target: T1, UGT1A1; assay: in vitro; settings: pooled liver microsomes, UGT1A1*1*28 (6/7) genotype, pH 7.4
Description: (§3) Ten microliter aliquots were injected into a high-performance liquid chromatograph assay system (Agilent 1100, Germany) with tandem mass spectrometric detection (API 4000 triple-quadrupole mass spectrometer; AB Sciex, Concord, Canada). Baseline separation of the analytes was achieved on the Alltima C18 (150 mm x 2.1 mm, 5 μm) column. The mobile phase A and B consisted of 100% acetonitrile and 0.1% formic acid, respectively.
(§4) After pre-incubation, the reaction was started with the addition of UGT1A1 or pooled HLMs (0.5 mg/mL). Reaction mixtures were incubated at 37°C for 30 minutes.
(§5) All experiments were carried out in triplicate. SN-38G formation velocity (ν) was calculated as Cm, 30 min/incubation time/microsomal protein concentration, where Cm, 30 min was the metabolite concentration after 30 min incubation. Plots of substrate concentration, S (X axis) versus ν (Y axis) were then constructed. Km and Vmax were calculated by the Michaelis-Menten Equation 1 below using GraphPad software v5.01 (GraphPad Software, Inc., San Diego, CA, USA). The kinetic parameter Vmax/Km, which is equivalent to intrinsic clearance (CLint) (Equation 2), was derived from the slope of the plot of the rate of product formation versus substrate concentration. Comparisons of CLint between two groups were performed by a paired t-test.

UGT1A1 [6] = target: T1, UGT1A1; assay: in vitro; settings: pooled liver microsomes, UGT1A1*28*28 (7/7) genotype, pH 7.4
Description: as §3, §4, §5

[7] = target: T3, pooled HLMs (UGT1A1*1*28 allelic variant, 6/7) (Homo sapiens, UniProt P22309)
T3 sequence (P22309 26-533): T1 sequence (P22309 26-533)
Description: as §3, §4, §5

[8] = target: T4, pooled HLMs (UGT1A1*28*28 allelic variant, 7/7) (Homo sapiens, UniProt P22309)
T4 sequence (P22309 26-533): T1 sequence (P22309 26-533)
Description: as §3, §4, §5

[9] = cited from earlier work
UGT1A6 = target: T5, UGT1A6 (Homo sapiens, UniProt P19224); assay: SN-38 glucuronidation by human recombinant UGT1A6, with and without panobinostat; assay type: in vitro ADME; settings: UGT1A6, panobinostat 20 and 200 nmol/L; CLint increases insignificant (p > 0.05)
T5 construct: purchased BD Gentest
T5 sequence (P19224 27-532): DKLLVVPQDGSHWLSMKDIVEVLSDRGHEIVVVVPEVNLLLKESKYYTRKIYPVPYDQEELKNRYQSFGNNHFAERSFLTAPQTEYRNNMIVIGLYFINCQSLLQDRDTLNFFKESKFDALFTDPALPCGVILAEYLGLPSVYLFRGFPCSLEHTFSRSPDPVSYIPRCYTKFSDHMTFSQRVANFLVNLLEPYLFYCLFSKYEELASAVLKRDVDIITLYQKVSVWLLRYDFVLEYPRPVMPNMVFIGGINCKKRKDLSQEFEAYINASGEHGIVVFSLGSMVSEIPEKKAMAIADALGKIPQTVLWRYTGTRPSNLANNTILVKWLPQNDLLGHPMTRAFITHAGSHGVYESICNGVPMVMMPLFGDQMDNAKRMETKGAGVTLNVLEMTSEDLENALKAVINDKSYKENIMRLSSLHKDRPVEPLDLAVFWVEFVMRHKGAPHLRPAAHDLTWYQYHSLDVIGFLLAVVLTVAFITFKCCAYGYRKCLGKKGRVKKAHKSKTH
Description: as §1, §2

UGT1A7 = target: T6, UGT1A7 (Homo sapiens, UniProt Q9HAW7); assay: SN-38 glucuronidation by human recombinant UGT1A7, with and without panobinostat; assay type: in vitro ADME; settings: UGT1A7, panobinostat 20 and 200 nmol/L; CLint increases insignificant (p > 0.05)
T6 construct: purchased BD Gentest
T6 sequence (Q9HAW7 26-530): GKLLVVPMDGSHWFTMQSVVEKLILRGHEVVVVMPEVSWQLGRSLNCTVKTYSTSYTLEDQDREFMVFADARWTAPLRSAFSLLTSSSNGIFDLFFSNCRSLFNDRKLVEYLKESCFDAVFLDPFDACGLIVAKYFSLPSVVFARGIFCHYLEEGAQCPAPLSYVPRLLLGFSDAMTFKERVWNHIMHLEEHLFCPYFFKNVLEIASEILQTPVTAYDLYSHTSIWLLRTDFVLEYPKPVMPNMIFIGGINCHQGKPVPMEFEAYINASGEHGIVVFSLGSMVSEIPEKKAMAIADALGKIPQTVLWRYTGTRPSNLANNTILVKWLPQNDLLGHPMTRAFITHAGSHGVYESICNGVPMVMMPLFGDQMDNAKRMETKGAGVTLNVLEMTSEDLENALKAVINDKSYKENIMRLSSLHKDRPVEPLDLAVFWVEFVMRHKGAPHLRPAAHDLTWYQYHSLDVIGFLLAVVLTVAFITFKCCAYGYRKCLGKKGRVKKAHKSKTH
Description: as §1, §2

With CCc1c2c(nc3ccc(O)cc13)-c1cc3c(c(=O)n1C2)COC(=O)[C@]3(O)CC [SN-38, 7-ethyl-10-hydroxycamptothecin] the microsomal CLint (UGT1A1 [1]; human, pH 7.4, recombinant UGT1A1, without belinostat, read-out: intrinsic clearance (CLint) of SN-38G formation) was 21.6 µL/min/mg, the microsomal CLint (UGT1A1 [2]) was 81.2 µL/min/mg and the “SN-38 glucuronidation activity (Vmax)” value ([3]; HLMs wild type 6/6, without belinostat) was 41.13 pmol/min/mg. The microsomal CLint (UGT1A9; human, recombinant UGT1A9, read-out: CLint of SN-38G) was 7.48 µL/min/mg, the “potency relative to irinotecan” value [4] was 100-1000 times and the microsomal CLint (UGT1A1 [5]) was 29.2 µL/min/mg. For the same compound, the microsomal CLint (UGT1A1 [6]) was 5.4 µL/min/mg.
With O=C(/C=C/c1cccc(S(=O)(=O)Nc2ccccc2)c1)NO [belinostat] the inhibition type (UGT1A1 [1]; SN-38 glucuronidation by UGT1A1) was “non-competitive”, the “interaction with irinotecan (SN-38 glucuronidation)” value (UGT1A1 [1]; belinostat 10 μmol/L, simulating oral dosing) was “would not have significant interactions” and the “decrease of CLint” value (UGT1A1 [1]; recombinant UGT1A1, belinostat 100 μmol/L vs no belinostat) was ~ 62%. For the same compound, the “decrease of CLint” value (UGT1A1 [1]; recombinant UGT1A1, belinostat 200 μmol/L vs no belinostat) was 81%, the “Vmax of SN-38 glucuronidation” value (UGT1A1 [1]; recombinant UGT1A1, with belinostat (abstract: 100 and 200 µmol/L; lowest value, taken as 200 µmol/L)) was 1.95 pmol/min/mg and the “decrease of CLint” value ([3]; belinostat 100 μmol/L vs none) was 56%. The “decrease of CLint” value ([3]; belinostat 200 μmol/L vs none) was 68%, the “SN-38 glucuronidation activity (Vmax)” value ([3]; HLMs wild type 6/6, with belinostat 200 µmol/L) was 10.54 pmol/min/mg and the inhibition type ([3]; SN-38 glucuronidation by HLMs (6/6)) was “non-competitive inhibition”. For the same compound, the inhibition type ([7]; SN-38 glucuronidation by HLMs (6/7)) was “non-competitive inhibition”, the “decrease of SN-38G formation rate compared to wild type” value ([7]; UGT1A1*1*28 (6/7) HLMs vs wild type 6/6, both with belinostat 200 μmol/L) was ~ 64% and the “decrease of CLint” value ([7]; UGT1A1*1*28 (6/7) HLMs, belinostat 200 μmol/L vs none, p < 0.05) was 79%. For the same compound, the “rate of SN-38G formation (Vmax)” value ([7]; UGT1A1*1*28 (6/7) HLMs, with belinostat 200 μmol/L) was 3.77 pmol/min/mg, the inhibition type ([8]; SN-38 glucuronidation by HLMs (7/7)) was “non-competitive inhibition” and the “decrease of SN-38G formation rate compared to wild type” value ([8]; UGT1A1*28*28 (7/7) HLMs vs wild type 6/6, both with belinostat 200 μmol/L) was ~ 64% and ~ 68%. The “decrease of CLint” value ([8]; UGT1A1*28*28 (7/7) HLMs, belinostat 200 μmol/L vs none, p < 0.05) was 75%, the “rate of SN-38G formation (Vmax)” value ([8]; UGT1A1*28*28 (7/7) HLMs, with belinostat 200 μmol/L) was 3.30 pmol/min/mg and the Cmax ([9]; high-dose intravenous administration) was 200 µM. The Cmax ([9]; oral administration) was 10 µM.
With Cc1[nH]c2ccccc2c1CCNCc1ccc(/C=C/C(=O)NO)cc1 [panobinostat] the “inhibitory effect on SN-38 glucuronidation” value (shortened to “inhibitory effect”) (UGT1A1 [1]; UGT1A1, panobinostat 20 and 200 nmol/L, CLint increases insignificant (p > 0.05)) was “not found to have any inhibitory effect”, the “inhibitory effect” value (UGT1A6) was “not found to have any inhibitory effect” and the “inhibitory effect” value (UGT1A7) was “not found to have any inhibitory effect”. The Cmax ([9]; intravenous administration) was 0.2 µM and the Cmax ([9]; oral administration) was 0.02 µM.
In the case of O=C(CCCCCCC(=O)Nc1ccccc1)NO [vorinostat], the “inhibition of UGT1A9 (SN-38 glucuronidation)” value (UGT1A9; vorinostat 2 µmol/L (therapeutic concentration)) is reported as “no significant inhibition”.
